This is an account of results in US8993585B2, “Cyclic amine substituted pyrimidinediamines as PKC inhibitors” (Rigel Pharmaceuticals, Inc., priority 2007, dated 2015).

The first assay deals with Human primary T cells. The experiment in a line: IL-2 ELISA, Human Primary T Cell, Anti-CD3+CD28+ (Example 3). Particulars: Homo sapiens, T-cell, 24 h, anti-CD3+CD28 stimulation. In kind it is cell-based. A digest of the protocol:
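Human primary T cells, 100,000 per well, were pre-incubated with compound in Yssel's medium for 1 h at 37 °C. The counter-assay used 0.5 ng/ml PMA with 0.1 uM ionomycin final.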
As to `Cc1nc2ccc(Nc3ncc(F)c(NC4CC(C)(C)N(C)C(C)(C)C4)n3)cc2[nH]1` [II-9], the half-inhibitory concentration (IC50) (commonly the point on the concentration scale where inhibition reaches its midpoint) is 12.3 µM.
The same measure, in the same setting: under `CN1C(C)(C)CC(Nc2nc(Nc3ccc4c(c3)oc(=O)n4CCF)ncc2F)CC1(C)C` [II-172] stands 0.75 µM; under `COc1ccc(-c2csc(Nc3ncc(F)c(NC4CC(C)(C)N(C)C(C)(C)C4)n3)n2)cc1OC` [II-138], 0.71 µM.
Same read-out and setting: under `CN1C(C)(C)CC(Nc2nc(N[C@H]3CCc4ccccc43)ncc2F)CC1(C)C` [II-83] stands 19.6 µM; under `COc1cc(Nc2nc(C)cc(NC3CC(C)(C)N(C)C(C)(C)C3)n2)cc(OC)c1` [IV-2], 3.14 µM; under `COc1cc(Nc2ncc(C)c(NC3CC(C)(C)N(C)C(C)(C)C3)n2)cc(OC)c1` [Compound I-425], 1.14 µM.
On the same count and under the same terms, with `COc1cc(Nc2ncc(F)c(NC3CC(C)(C)NC(C)(C)C3)n2)cc(OCCN2CCOCC2)c1` [Compound I-432] the figure was 1.53 µM; with `Cc1ccc(Nc2ncc(F)c(NC3CC(C)(C)N(CCC(=O)O)C(C)(C)C3)n2)cc1C#N` [Compound I-306], 10.5 µM.
In the case of `CN1C(C)(C)CC(N(Cc2ccccc2)c2nc(Nc3ccc(N4CCN(S(C)(=O)=O)CC4)c(C(F)(F)F)c3)ncc2F)CC1(C)C` [Compound I-310], the IC50 amounted to 1.41 µM. Compared with the last molecule, the IC50 is about 7.4-fold lower.
For `CN1C(C)(C)CC(N(Cc2ccc3ccccc3c2)c2nc(Nc3ccc4c(c3)OCCO4)ncc2F)CC1(C)C` [II-87], 3.81 µM corresponded to half-maximal inhibition (IC50).
Same read-out and setting: with `C#Cc1cnc(Nc2ccc3c(c2)OC(C)(C)C(=O)N3CC)nc1NC1CC(C)(C)N(C)C(C)(C)C1` [II-152] the figure was 0.54 µM; with `CN1C(C)(C)CC(Nc2nc(Nc3ccc4c(c3)OCC(=O)N4CCF)ncc2F)CC1(C)C` [II-82], 0.291 µM.
On the same count and under the same terms, under `CCCN1C(=O)COc2cc(Nc3ncc(F)c(NC4CC(C)(C)N(C)C(C)(C)C4)n3)ccc21` [II-59] stands 0.148 µM; under `COc1cc(Nc2ncc(F)c(NC3CC(C)(C)N(C)C(C)(C)C3)n2)cc(OCCN2CCOCC2)c1` [Compound I-431], 0.45 µM.
Turning to `COc1cc(Nc2ncc(F)c(NC3CC(C)(C)N(C)C(C)(C)C3)n2)cc(OCCN2CCCC2)c1` [Compound I-434], the IC50 was determined as 0.27 µM.
On the same count and under the same terms, with `CN1C(C)(C)CC(Nc2nc(Nc3ccc4[nH]ncc4c3)ncc2F)CC1(C)C` [II-38] the figure was 0.827 µM; with `CN1C(C)(C)CC(Nc2nc(Nc3nc4ccccc4s3)ncc2F)CC1(C)C` [II-16], 1.64 µM.
On the same count and under the same terms, with `CC(C)n1c(=O)oc2cc(Nc3ncc(C#N)c(NC4CC(C)(C)N(C)C(C)(C)C4)n3)ccc21` [II-70] the figure was 0.327 µM.

The same assay, now with this note: anti-CD3+CD28 stimulation, 24 hours.
`CN1C(C)(C)CC(Nc2nc(Nc3cccc(OC(F)(F)F)c3)ncc2Br)CC1(C)C` [Compound I-275] returned an IC50 of 0.617 µM.
`CN1C(C)(C)CC(Nc2nc(Nc3ccc(F)c(-n4cnnn4)c3)ncc2F)CC1(C)C` [Compound I-466] gave an IC50 of 0.24 µM.
`CN1C(C)(C)CC(Nc2nc(Nc3ccc(N4CCN(S(C)(=O)=O)CC4)c(C#N)c3)ncc2C(F)(F)F)CC1(C)C` [Compound I-176] displayed an IC50 of 0.655 µM.
Same read-out and setting: under `COc1ccc(Nc2ncc(F)c(NC3CC(C)(C)N(C(C)=O)C(C)(C)C3)n2)cc1Cl` [Compound I-213] stands 19.6 µM; under `CC(=O)N1CCN(c2ccc(Nc3ncc(F)c(NC4CC(C)(C)N(C)C(C)(C)C4)n3)cc2C(F)(F)F)CC1` [Compound I-49], 0.284 µM.
The same measure, in the same setting: with `CN1C(C)(C)CC(Nc2nc(Nc3ccc(C(=O)NC4CC4)c(C(F)(F)F)c3)ncc2F)CC1(C)C` [Compound I-230] the figure was 1.09 µM; with `CN1C(C)(C)CC(Nc2nc(Nc3ccc(F)c(-c4cccnc4)c3)ncc2F)CC1(C)C` [Compound I-180], 0.914 µM; with `CN1C(C)(C)CC(Nc2nc(Nc3ccc(OCC(N)=O)cc3)ncc2F)CC1(C)C` [Compound I-134], 2.43 µM.
`CN1C(C)(C)CC(Nc2nc(Nc3ccc(F)c(-c4ccncc4)c3)ncc2F)CC1(C)C` [Compound I-191] came in with an IC50 of 0.7 µM. This IC50 is about 3.5-fold lower than that of the molecule before.
Same read-out and setting: under `CN1C(C)(C)CC(Nc2nc(Nc3ccc(C#N)cc3)ncc2F)CC1(C)C` [Compound I-25] stands 4.89 µM; under `CN1CCN(c2ccc(Nc3ncc(F)c(N(C)C4CC(C)(C)N(C)C(C)(C)C4)n3)cc2C(F)(F)F)CC1` [Compound I-59], 0.911 µM; under `CCN1C(=O)C(F)(F)Oc2cc(Nc3ncc(C#N)c(NC4CC(C)(C)NC(C)(C)C4)n3)cnc21` [II-73], 1.18 µM.
`COc1cc(Nc2ncc(Cl)c(NC3CC(C)(C)N(C)C(C)(C)C3)n2)ccc1NC(=O)c1ccco1` [Compound I-352]: the IC50 came out at 1.07 µM.
Molecule `CC1(C)CC(Nc2nc(Nc3cccc(-n4cnnn4)c3)ncc2F)CC(C)(C)N1` [Compound I-391] yielded an IC50 of 0.22 µM.
Still for that read-out and setting: under `CC(C)OC(=O)Nc1cccc(Nc2ncc(F)c(NC3CC(C)(C)N(C)C(C)(C)C3)n2)c1` [Compound I-139] stands 1.57 µM; under `COc1ccc(Nc2ncc(F)c(NC3CC(C)(C)N(CCC(=O)O)C(C)(C)C3)n2)cc1C(F)(F)F` [Compound I-305], 17.9 µM.
On the same count and under the same terms, with `CC(C)OC(=O)COc1ccc(Nc2ncc(F)c(NC3CC(C)(C)N(C)C(C)(C)C3)n2)cc1` [Compound I-135] the figure was 4.64 µM; with `CN1C(C)(C)CC(Nc2nc(Nc3ccc(Br)cc3)ncc2F)CC1(C)C` [Compound I-108], 1.15 µM.
In the case of `COc1cc(Nc2ncc(C#N)c(NC3CC(C)(C)NC(C)(C)C3)n2)cc(-n2nnnc2C)c1` [Compound I-402], the IC50 was 0.47 µM. Compared with the last molecule, the IC50 is about 2.4-fold lower.
In turn, `CN1CCN(c2ccc(Nc3ncc(F)c(NC4CCC(C)(C)N(C)C(C)(C)C4)n3)cc2C(F)(F)F)CC1` (stereo not drawn) [Compound I-270, 5-Fluoro-N2-[4-methylpiperizine-3-trifluoromethyl]phenyl-N4-(1,2,2,7,7-pentamethylazepan-4-yl)-2,4-pyrimidinediamine] came in with an IC50 of 3.45 µM.
Still for that read-out and setting: with `Cc1cnc(Nc2cccc(S(N)(=O)=O)c2)nc1NC1CC(C)(C)N(C)C(C)(C)C1` [Compound I-14] the figure was 9.84 µM; with `CN1C(C)(C)CC(Nc2nc(Nc3ccc(F)c(C#N)c3)ncc2C(F)(F)F)CC1(C)C` [Compound I-170], 2.65 µM; with `COc1ccc(Nc2ncc(F)c(NC3CC(C)(C)N(C)C(C)(C)C3)n2)cc1OCc1cccnc1` [Compound I-418], 2.19 µM.
Still for that read-out and setting: under `CN1C(C)(C)CC(Nc2nc(Nc3ccc(Cl)c(C#N)c3)ncc2C(F)(F)F)CC1(C)C` [Compound I-169] stands 0.684 µM; under `COc1cc(Nc2ncc(F)c(NC3CC(C)(C)NC(C)(C)C3)n2)cc(-n2nnnc2C)c1` [Compound I-372], 0.0921 µM.
As to `COc1ccc(Nc2ncc(F)c(NC3CC(C)(C)N(C)C(C)(C)C3)n2)cc1F` [Compound I-127], the IC50 was 1.14 µM.
The same measure, in the same setting: with `CN1CCN(c2ccc(Nc3ncc(C(N)=O)c(NC4CC(C)(C)N(C)C(C)(C)C4)n3)cc2Cl)CC1` [Compound I-98] the figure was 1.07 µM; with `CN1C(C)(C)CC(Nc2nc(Nc3cccc(C(N)=O)c3)ncc2F)CC1(C)C` [Compound I-24], 1.52 µM.
For the molecule `CCOC(=O)c1cnc(Nc2ccc(N3CCN(C)CC3)c(Cl)c2)nc1NC1CC(C)(C)N(C)C(C)(C)C1` [Compound I-89], half-maximal inhibition (IC50) required 5.8 µM.
Consider `CN1C(C)(C)CC(Nc2nc(Nc3ccc(N4CCOCC4)c(Cl)c3)ncc2F)CC1(C)C` [Compound I-335], for which the IC50 came to 0.563 µM.
